By IC50 is commonly meant the concentration that inhibits the measured activity by half.

For one series, the system named is MCF7. In words: Antiproliferative activity against human MCF7 cells assessed as reduction in cell viability incubated for 48 hrs by MTT assay. The settings on record: MCF7, 48 h. Format: functional, cell-based. For orientation: Tetrazolium dyes change colour on reduction, which living cells bring about.
For another series, the system named is HepG2. In words: Antiproliferative activity against human HepG2 cells assessed as reduction in cell viability incubated for 48 hrs by MTT assay. To be noted: HepG2, 48 h. Format: functional, cell-based.
In a further series the test system is HCT-116. Briefly: Antiproliferative activity against human HCT116 cells assessed as reduction in cell viability incubated for 48 hrs by MTT assay. To be noted: HCT-116, 48 h. Format: functional, cell-based.
Series [1] deals with MDA-MB-231. Briefly: Antiproliferative activity against human MDA-MB-231 cells assessed as reduction in cell viability incubated for 48 hrs by MTT assay. Type of series: functional, cell-based. The settings on record: MDA-MB-231, 48 h.
The target in series [2] is Signal transducer and activator of transcription 3 (Homo sapiens) (UniProt P40763). In words: Inhibition of STAT3 in human MDA-MB-231 cells assessed as decrease in STAT3-DNA binding at 4 uM incubated for 24 hrs by electrophoretic mobility shift assay. Type of series: cell-based. On the technique in general: A gel shift assay detects complexes by their altered migration in electrophoresis.
Signal transducer and activator of transcription 3 (Homo sapiens), sequence (P40763 whole entry): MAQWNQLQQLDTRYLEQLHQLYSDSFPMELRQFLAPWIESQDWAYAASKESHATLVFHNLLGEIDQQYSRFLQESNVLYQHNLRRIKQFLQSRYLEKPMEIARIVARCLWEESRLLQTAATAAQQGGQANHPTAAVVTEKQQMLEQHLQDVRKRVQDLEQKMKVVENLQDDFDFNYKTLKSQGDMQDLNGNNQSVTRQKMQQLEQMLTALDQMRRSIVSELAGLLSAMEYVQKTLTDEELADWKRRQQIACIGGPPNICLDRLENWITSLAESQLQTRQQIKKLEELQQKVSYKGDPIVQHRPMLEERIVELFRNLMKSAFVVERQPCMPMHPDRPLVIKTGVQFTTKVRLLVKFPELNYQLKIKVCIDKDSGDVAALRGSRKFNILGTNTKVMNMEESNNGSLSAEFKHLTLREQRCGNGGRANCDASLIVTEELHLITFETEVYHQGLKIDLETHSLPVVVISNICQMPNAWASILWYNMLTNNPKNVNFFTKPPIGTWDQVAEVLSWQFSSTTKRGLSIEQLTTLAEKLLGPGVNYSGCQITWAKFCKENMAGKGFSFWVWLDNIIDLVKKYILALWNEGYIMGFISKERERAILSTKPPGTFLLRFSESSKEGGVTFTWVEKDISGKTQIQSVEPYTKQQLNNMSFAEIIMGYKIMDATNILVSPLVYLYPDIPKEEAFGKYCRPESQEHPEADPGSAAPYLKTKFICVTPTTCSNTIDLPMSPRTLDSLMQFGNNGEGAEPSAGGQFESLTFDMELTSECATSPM

The subject of series [3] is MDA-MB-231. In words: Induction of apoptosis in human MDA-MB-231 cells assessed as increase in cleaved caspase-3 levels at 4 uM incubated for 24 hrs by Western blot analysis. Format: functional, cell-based.
The nature of series [4]: Selectivity index, ratio of IC50 for human L02 cells to IC50 for human HepG2 cells. Type of series: toxicity. To be noted: L02 cells versus HepG2 cells, read-out: Ratio IC50.
Series [5] relates to MDA-MB-231. Briefly: Induction of apoptosis in human MDA-MB-231 cells assessed as increase in cleaved PARP levels at 4 uM incubated for 24 hrs by Western blot analysis. Format: functional, cell-based. In general terms: In western blotting, separated proteins are transferred to a membrane and probed.
Series [6] addresses Signal transducer and activator of transcription 3 (Homo sapiens) (UniProt P40763). Briefly: Inhibition of STAT3 in human MDA-MB-231 cells assessed as decrease in STAT3 phosphorylation at Tyr705 residue at 4 uM incubated for 24 hrs by Western blot analysis. Type of series: cell-based.
Series [7] has as its target T1, Signal transducer and activator of transcription 1-alpha/beta (Homo sapiens) (UniProt P42224).
T1 sequence (whole entry): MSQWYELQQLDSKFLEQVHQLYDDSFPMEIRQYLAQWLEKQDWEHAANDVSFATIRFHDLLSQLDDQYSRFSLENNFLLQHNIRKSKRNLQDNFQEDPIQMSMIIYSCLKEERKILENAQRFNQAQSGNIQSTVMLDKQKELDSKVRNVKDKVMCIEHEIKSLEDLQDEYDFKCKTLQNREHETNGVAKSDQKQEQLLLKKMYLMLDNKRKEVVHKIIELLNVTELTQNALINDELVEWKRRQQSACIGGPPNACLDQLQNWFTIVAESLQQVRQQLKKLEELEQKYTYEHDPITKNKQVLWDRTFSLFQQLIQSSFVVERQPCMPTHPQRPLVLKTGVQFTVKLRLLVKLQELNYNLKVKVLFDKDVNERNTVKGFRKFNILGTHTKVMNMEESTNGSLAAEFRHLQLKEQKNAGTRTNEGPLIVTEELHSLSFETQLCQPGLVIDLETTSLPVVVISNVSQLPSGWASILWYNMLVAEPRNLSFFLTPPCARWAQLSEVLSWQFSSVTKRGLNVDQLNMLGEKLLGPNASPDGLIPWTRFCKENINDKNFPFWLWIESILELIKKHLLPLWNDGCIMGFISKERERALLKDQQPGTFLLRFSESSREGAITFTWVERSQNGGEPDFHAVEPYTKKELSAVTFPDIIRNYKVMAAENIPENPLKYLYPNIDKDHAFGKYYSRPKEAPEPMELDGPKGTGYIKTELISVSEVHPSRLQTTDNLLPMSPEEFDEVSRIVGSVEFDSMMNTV
In words: Inhibition of STAT1 in human MDA-MB-231 cells assessed as decrease in STAT1 phosphorylation at Y701 residue at 4 uM incubated for 24 hrs by Western blot analysis. Type of series: cell-based.

In series [8] the target is Tyrosine-protein kinase JAK2 (Homo sapiens) (UniProt O60674). Briefly: Inhibition of JAK2 in human MDA-MB-231 cells assessed as reduction in JAK2 phosphorylation at 4 uM incubated for 24 hrs by Western blot analysis. Format: cell-based.
Tyrosine-protein kinase JAK2 (Homo sapiens), sequence (O60674 whole entry): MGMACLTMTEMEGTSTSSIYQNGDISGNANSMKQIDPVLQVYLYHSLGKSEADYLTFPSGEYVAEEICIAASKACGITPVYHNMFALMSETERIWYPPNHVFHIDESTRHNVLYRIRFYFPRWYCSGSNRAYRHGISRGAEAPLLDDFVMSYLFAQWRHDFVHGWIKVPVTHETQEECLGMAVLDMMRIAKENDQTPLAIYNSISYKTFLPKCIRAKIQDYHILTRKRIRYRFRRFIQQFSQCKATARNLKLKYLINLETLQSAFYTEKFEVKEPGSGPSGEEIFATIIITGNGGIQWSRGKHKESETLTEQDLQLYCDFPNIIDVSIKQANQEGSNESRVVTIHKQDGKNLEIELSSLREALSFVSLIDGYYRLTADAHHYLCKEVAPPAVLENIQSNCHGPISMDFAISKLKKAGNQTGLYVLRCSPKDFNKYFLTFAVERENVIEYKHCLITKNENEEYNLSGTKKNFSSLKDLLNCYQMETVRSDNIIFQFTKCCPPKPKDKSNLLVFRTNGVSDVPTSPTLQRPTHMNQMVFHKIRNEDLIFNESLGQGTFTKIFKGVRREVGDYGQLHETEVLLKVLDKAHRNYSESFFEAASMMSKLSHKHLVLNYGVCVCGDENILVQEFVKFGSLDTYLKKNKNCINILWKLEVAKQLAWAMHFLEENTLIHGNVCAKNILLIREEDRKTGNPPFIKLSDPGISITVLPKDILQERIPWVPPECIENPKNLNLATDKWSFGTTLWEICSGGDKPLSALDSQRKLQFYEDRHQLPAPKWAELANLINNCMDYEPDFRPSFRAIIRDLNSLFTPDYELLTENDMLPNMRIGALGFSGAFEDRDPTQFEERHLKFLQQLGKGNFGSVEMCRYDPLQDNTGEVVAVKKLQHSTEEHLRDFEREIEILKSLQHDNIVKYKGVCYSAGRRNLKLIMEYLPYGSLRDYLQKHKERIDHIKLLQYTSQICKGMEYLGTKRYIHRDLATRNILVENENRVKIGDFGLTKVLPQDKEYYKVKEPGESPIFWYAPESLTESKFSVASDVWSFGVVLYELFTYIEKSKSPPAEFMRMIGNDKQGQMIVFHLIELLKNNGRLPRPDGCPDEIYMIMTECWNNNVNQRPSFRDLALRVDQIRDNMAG
For another series, the system named is L02. In words: Cytotoxicity against human LO2 cells assessed as reduction in cell viability incubated for 48 hrs by MTT assay. To be noted: L02, 48 h. Type of series: cell-based.
For a further series, the system named is MCF-10A. Briefly: Cytotoxicity against human MCF10A cells assessed as reduction in cell viability incubated for 48 hrs by MTT assay. Format: cell-based.
The test system of series [9] is MDA-MB-231. In words: Induction of apoptosis in human MDA-MB-231 cells assessed as increase in cleaved caspase-9 levels at 4 uM incubated for 24 hrs by Western blot analysis. Type of series: functional, cell-based.
Series [10] has as its target Mitogen-activated protein kinase; ERK1/ERK2 (Homo sapiens) (UniProt P27361+P28482). In words: Inhibition of ERK 1/2 in human MDA-MB-231 cells assessed as reduction in ERK 1/2 phosphorylation at 4 uM incubated for 24 hrs by Western blot analysis. Type of series: cell-based.
The nature of series [11]: Selectivity index, ratio of IC50 for human MCF10A cells to IC50 for human MDA-MB-231 cells. Format: toxicity. The settings on record: MCF10A cells versus MDA-MB-231 cells, read-out: Ratio IC50.
Series [12] deals with Proto-oncogene tyrosine-protein kinase Src (Homo sapiens) (UniProt P12931). In words: Inhibition of Src in human MDA-MB-231 cells assessed as reduction in Src phosphorylation at 4 uM incubated for 24 hrs by Western blot analysis. Format: cell-based.
Proto-oncogene tyrosine-protein kinase Src (Homo sapiens), sequence (P12931 2-536 limits assumed): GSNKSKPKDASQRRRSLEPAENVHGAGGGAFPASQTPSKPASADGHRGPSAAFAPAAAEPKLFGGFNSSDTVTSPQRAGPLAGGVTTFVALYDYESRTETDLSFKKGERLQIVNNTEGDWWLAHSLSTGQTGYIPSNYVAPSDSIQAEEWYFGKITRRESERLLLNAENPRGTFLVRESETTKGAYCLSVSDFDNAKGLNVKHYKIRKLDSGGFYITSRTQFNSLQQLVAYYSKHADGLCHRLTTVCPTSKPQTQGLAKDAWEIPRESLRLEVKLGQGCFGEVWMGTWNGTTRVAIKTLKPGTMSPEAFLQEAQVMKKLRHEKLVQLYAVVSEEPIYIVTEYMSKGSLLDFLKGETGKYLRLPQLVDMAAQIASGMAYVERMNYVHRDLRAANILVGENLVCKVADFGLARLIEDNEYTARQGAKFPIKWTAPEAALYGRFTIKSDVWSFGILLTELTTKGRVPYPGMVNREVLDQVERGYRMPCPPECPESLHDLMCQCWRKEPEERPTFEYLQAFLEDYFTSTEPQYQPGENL

The source made the active and inactive calls. No cut-off for these calls is given here.

Mitogen-activated protein kinase; ERK1/ERK2 (Homo sapiens), sequence (P27361 whole entry, looked up): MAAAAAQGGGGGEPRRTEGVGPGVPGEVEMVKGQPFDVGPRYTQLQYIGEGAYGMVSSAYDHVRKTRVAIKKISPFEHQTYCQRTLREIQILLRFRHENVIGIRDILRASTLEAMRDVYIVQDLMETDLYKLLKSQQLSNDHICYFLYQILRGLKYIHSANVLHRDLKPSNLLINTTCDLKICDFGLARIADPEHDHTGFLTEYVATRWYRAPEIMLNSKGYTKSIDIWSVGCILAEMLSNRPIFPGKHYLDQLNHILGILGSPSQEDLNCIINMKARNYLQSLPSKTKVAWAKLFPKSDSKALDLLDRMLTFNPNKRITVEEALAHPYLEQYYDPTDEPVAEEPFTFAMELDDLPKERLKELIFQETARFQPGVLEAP
Mitogen-activated protein kinase; ERK1/ERK2 (Homo sapiens), sequence (P28482 whole entry, looked up): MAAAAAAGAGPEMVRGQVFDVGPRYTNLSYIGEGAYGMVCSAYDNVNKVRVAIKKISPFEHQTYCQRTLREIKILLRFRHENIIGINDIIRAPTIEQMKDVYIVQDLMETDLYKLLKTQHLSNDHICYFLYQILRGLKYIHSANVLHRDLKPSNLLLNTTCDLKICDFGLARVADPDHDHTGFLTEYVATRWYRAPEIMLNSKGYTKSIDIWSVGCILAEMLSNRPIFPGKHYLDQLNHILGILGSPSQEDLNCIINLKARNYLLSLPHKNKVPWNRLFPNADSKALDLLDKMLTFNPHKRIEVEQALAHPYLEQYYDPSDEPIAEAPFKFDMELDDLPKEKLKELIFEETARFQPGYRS

As for `CCN(CC)c1ccc2cc(C(=O)N3CCN(C(=O)C4=Cc5c(Cl)cccc5S4(=O)=O)CC3)c(=O)oc2c1`, the IC50 in the series with MCF7 worked out at 4.44 µM; in the series with HepG2, 4.49 µM; with HCT-116 it was 1.57 µM; in the series with MDA-MB-231 [1] it was 2.24 µM.
Consider `CCN(CC)c1ccc2cc(C(=O)N3CCN(C(=O)C4=Cc5ccc(Br)cc5S4(=O)=O)CC3)c(=O)oc2c1`, for which the IC50 in the series on MCF7 amounted to 5.04 µM; with HepG2 it was 5.52 µM; in the series on HCT-116, 2.79 µM; in the series on MDA-MB-231 [1], 2.74 µM.
The corresponding values for `O=S1(=O)C=Cc2ccccc21` are 15.2 µM, 22.9 µM, 9.33 µM and 27.7 µM.
Regarding `CCN(CC)c1ccc2cc(C(=O)N3CCN(C(=O)C4=Cc5c([N+](=O)[O-])cccc5S4(=O)=O)CC3)c(=O)oc2c1`, the half-inhibitory concentration (IC50) came to 4.41 µM in the series with MCF7, 4.91 µM with HepG2, 3.24 µM in the series on HCT-116 and 3.46 µM in the series with MDA-MB-231 [1].
The corresponding values for `CCN(CC)c1ccc2cc(C(=O)N3CCN(C(=O)C4=Cc5c(OC)cccc5S4(=O)=O)CC3)c(=O)oc2c1` are 3.95 µM, 2.94 µM, 2.02 µM and 1.84 µM.
Turning to `O=[N+]([O-])c1ccc2c(c1)S(=O)(=O)C=C2`, the inhibition result in series [2] and in [6] was “Active” each time. Further, the 50% inhibitory concentration (IC50) with MCF7 was determined as 3.71 µM; with HepG2, 3.52 µM; in the series on HCT-116, 2.16 µM; with L02 it was 5.2 µM; in the series with MCF-10A, 6.11 µM; in the series with MDA-MB-231 [1], 1.81 µM. Moreover, the result with MDA-MB-231 [3], with MDA-MB-231 [5] and in the series with MDA-MB-231 [9] was Active. The selectivity ratio came out at 1.5 in series [4] and 3.4 in series [11]. Further, the inhibition entry in [7], in [8], in [10] and in series [12] was “inactive” each time.
As for `CCN(CC)c1ccc2cc(C(=O)N3CCN(C(=O)C4=Cc5cc(Br)ccc5S4(=O)=O)CC3)c(=O)oc2c1`, the IC50 in the series with MCF7 was 3.9 µM; with HepG2 it was 5.15 µM; with HCT-116, 3.83 µM; in the series with MDA-MB-231 [1], 2.23 µM.
As for `CCN(CC)c1ccc2cc(C(=O)N3CCN(C(=O)C4=Cc5ccc([N+](=O)[O-])cc5S4(=O)=O)CC3)c(=O)oc2c1`, the half-inhibitory concentration (IC50) in the series with MCF7 is 6.76 µM; in the series on HepG2, 7.09 µM; with HCT-116, 4.95 µM; with MDA-MB-231 [1], 5.22 µM.
For `CCN(CC)c1ccc2cc(C(=O)N3CCN(C(=O)C4=Cc5ccccc5S4(=O)=O)CC3)c(=O)oc2c1`, the IC50 in the series on MCF7 amounted to 3 µM; in the series on HepG2 it was 4.31 µM; in the series with HCT-116, 3.78 µM; in the series with MDA-MB-231 [1], 2.32 µM.
For the compound `CCN(CC)c1ccc2cc(C(=O)N3CCN(C(=O)C4=Cc5ccc(Cl)cc5S4(=O)=O)CC3)c(=O)oc2c1`, the IC50 with MCF7 worked out at 5.23 µM; in the series with HepG2 it was 5.29 µM; with HCT-116 it was 4.44 µM; with MDA-MB-231 [1], 2.03 µM.
Regarding `CCN(CC)c1ccc2cc(C(=O)N3CCN(C(=O)C4=Cc5cc(Cl)ccc5S4(=O)=O)CC3)c(=O)oc2c1`, the IC50 in the series with MCF7 was 4.39 µM; in the series with HepG2, 5.55 µM; in the series with HCT-116, 4.12 µM; in the series with MDA-MB-231 [1], 2.35 µM.
The corresponding values for `CCN(CC)c1ccc2cc(C(=O)N3CCN(C(=O)C4=Cc5ccc(OC)cc5S4(=O)=O)CC3)c(=O)oc2c1` are 2.28 µM, 4.21 µM, 2.3 µM and 1.92 µM.
As to `CCN(CC)c1ccc2cc(C(=O)N3CCN(C(=O)C4=Cc5c(F)cccc5S4(=O)=O)CC3)c(=O)oc2c1`, the half-maximal inhibitory concentration (IC50) with MCF7 is 4.04 µM; in the series with HepG2, 3.3 µM; with HCT-116, 2.33 µM; in the series with MDA-MB-231 [1], 2.13 µM.
For `CCN(CC)c1ccc2cc(C(=O)N3CCN(C(=O)C4=Cc5cccc(Br)c5S4(=O)=O)CC3)c(=O)oc2c1`, the IC50 amounted to 3.2 µM in the series with MCF7, 4.74 µM in the series with HepG2, 2.97 µM in the series on HCT-116 and 2.32 µM with MDA-MB-231 [1].
For `CCN(CC)c1ccc2cc(C(=O)N3CCN(C(=O)C4=Cc5cc([N+](=O)[O-])ccc5S4(=O)=O)CC3)c(=O)oc2c1`, the IC50 with MCF7 was found to be 6.33 µM; with HepG2, 7.47 µM; with HCT-116 it was 6.74 µM; in the series on MDA-MB-231 [1], 4.92 µM.
With `CCN(CC)c1ccc2cc(C(=O)N3CCN(C(=O)C4=Cc5ccc(F)cc5S4(=O)=O)CC3)c(=O)oc2c1`, the IC50 in the series with MCF7 worked out at 6.35 µM; in the series on HepG2, 4.9 µM; in the series with HCT-116, 4.26 µM; with MDA-MB-231 [1], 3.2 µM.

Source of the values: ChEMBL document CHEMBL4393689, “Discovery of fluorescent coumarin-benzo[b]thiophene 1, 1-dioxide conjugates as mitochondria-targeting antitumor STAT3 inhibitors” (Eur J Med Chem, 2019).
